Experimental data: patent US6326401A, “Formulation for the oromucosal, in particular pernasal, route” (Immunotech, priority 1998, dated 2001)
Where two headings read alike, the source gives them in different places.

Experiments:
[1] = Reproducibility of bioavailability of the aqueous nasal solution plus Labrasol (Example 5); type: in vivo, human subjects; details: 100 μl (4 mg), with Labrasol, 8 subjects
[2] = Bioavailability test: serum IS 159 after nasal administration of the solution and control solution of example 1 (Example 4); type: in vivo, man; details: for AUC at 4 h / Tmax: human, serum; for AUC at 4 h: observation period 4 hours; for Tmax: read-out: apparent Tmax (converted)
[3] = Compared bioavailability of aqueous nasal solution/aqueous subcutaneous solution (Example 9); type: in vivo, healthy volunteer subjects; details: 4 mg; for Tmax / half-life: human, serum; for half-life: read-out: Terminal half-life (converted)
Description: (§1) The serum concentrations of IS 159 as a function of time were measured on healthy volunteer subjects.

[4] = Dose/effect and reproducibility of bioavailability, nasal 4 mg and 7 mg (Example 6); type: in vivo, human subjects; details: with Labrasol
Description: The black squares represent the dose of 4 mg and the white squares represent the dose of 7 mg.

[5] = Compared bioavailability of sublingual formulations without and with Labrasol (Example 7); type: in vivo, healthy volunteer subjects; details: 10 mg, sublingual tablet; for AUC at 6 h / Tmax: human, serum; for AUC at 6 h: observation period 6 hours; for Tmax: read-out: apparent Tmax (converted)
Description: The serum concentrations of IS 159 as a function of time were measured on healthy volunteer subjects. These subjects received an identical amount of active substance IS 159 (10 mg) in the form of tablets in the absence or presence of Labrasol® (2%) by sublingual administration.

[6] = Comparison between aqueous nasal solution and sublingual formulation (Example 8); type: in vivo, healthy volunteer subjects; details: human, serum, 10 mg; for AUC(0-inf): read-out: AUC from time 0 to infinity
Description: as §1

[7] = control solution without Labrasol

## NCCc1c[nH]c2ccc(OCC(=O)NC(Cc3ccc(O)cc3)C(=O)NCC(N)=O)cc12 (centres unmarked) [IS 159, tryptamine 5-O-carboxymethyl-tyrosyl-glycinamide]
[1]
  interindividual and intraindividual reproducibilities of the pharmacokinetic parameters: good
[2]; [7]
  AUC at 4 h: 12 ng·h/mL
  Tmax: 30 min
[2]; with Labrasol
  AUC at 4 h: 85 ng·h/mL
  Tmax: 10 to 15 min
[2]; with Labrasol vs control solution
  absorption (Cmax): increases the absorption (Cmax)
[3]; sc, mean s.c.
  Tmax: 30 min
  half-life: 150 min
[3]; mean nasal, with Labrasol
  Tmax: 15 min
  half-life: 150 min
  AUC/dose: 14 (h.ng/ml)(mg dose IS 159)
  Cmax/dose: 11 ng/mL
[3]; mean s.c.
  AUC/dose: 36 (h.ng/ml)(mg dose IS 159)
  Cmax/dose: 20 ng/mL
[3]; nasal (with Labrasol) / s.c.
  AUC/dose, ratio Nasal/s.c.: 39%
  Cmax/dose, ratio Nasal/s.c.: 55%
[3]; nasal (with Labrasol) vs s.c.
  Tmax, Nasal/s.c.: reduced
[3]; nasal solution with Labrasol, compared with subcutaneous
  bioavailability: significant and faster than by the subcutaneous route
[3]; nasal vs subcutaneous
  terminal half-life, change: not changed significantly
[4]
  intra-individual and interindividual reproducibility of the pharmacokinetic parameters: good
  ratios of the AUCs and the maximum concentrations: constant and high
[5]; control (2% lactose)
  AUC at 6 h: 0.42 ng·h/mL
[5]; control without Labrasol
  Tmax: 45 min
[5]; with 2% Labrasol
  AUC at 6 h: 9.72 ng·h/mL
  Tmax: 35 min
[5]; with 2% Labrasol vs control
  absorption (Cmax): increases the absorption (Cmax)
[6]; nasal solution with Labrasol
  AUC(0-inf): 166 ng·h/mL
[6]; sublingual tablet with 2% Labrasol
  AUC(0-inf): 12 ng·h/mL
[6]; nasal and sublingual with Labrasol, read-out: terminal half-life (converted)
  half-life: ~150 min
